Data on four compounds can be found in US10065990B2, “Cyclic peptide compound, and preparation method, pharmaceutical composition and use thereof” (HANGZHOU GUANYU BIO-MEDICAL CO., LTD, priority 2013, dated 2018).

pIC50: −log10 of the molar value. Read-outs that look alike come from different tables or passages of the source.

Assay [1] addresses HDAC2 (Homo sapiens, UniProt Q92769). The experiment in a line: HDAC biochemical activity measurement (fluorescent substrate deacetylation). Conditions: 37° C. 30 minutes.
The target of assay [2] is HDAC3 (Homo sapiens, UniProt O15379). The assay is described as above.
Experimental: The chemical activity of the compound is determined according to the degree of deacetylation inhibition of the HDAC enzyme. This experiment measured the degree of deacetylation related to tumor proliferation and metastasis of HDAC1, HDAC2, HDAC3, HDAC8, HDAC11 five subtypes HDAC enzymes. After the substrate containing an acetylated lysine side chain and HDAC enzyme are labeled with a fluorescent label, the fluorescent substrate is de acetyl. The fluorescent labeled substrate is cleaved by the enzyme, and the fluorescent substance is released, which generates 460 nm emission light under the excitation of 360 nm light.
HDAC substrate was diluted with reaction buffer to 200M (reaction concentration of 20M), the HDAC enzyme was diluted to the appropriate concentration, then added different concentrations of the test compounds and acted at 37° C. 30 minutes, and then added the same volume of 2-times concentration substrate developing solution (developer), incubated at room temperature for 15 minutes.
In assay [3] the test system is N-87 (human gastric cancer cells). The experiment in a line: MTT cancer cell growth inhibition. The class given is cell-based. Conditions: Homo sapiens, 72 h, MTT, 72 hours incubation, N-87 cells; read-out: GI50 N-87. In outline:
(§1)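 72 h exposure, final drug 10^−5–10^−10 M, triplicate wells; 1500 cells/well plated the day before; medium DMEM or 1640 + 10% FBS; 37° C./5% CO2. MTT (5 mg/ml stock) 4 h, DMSO solubilisation, A570 → % viability → GI50.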

Assay [4] deals with HT1080 (human fibrosarcoma cells). The experiment in a line: MTT cancer cell growth inhibition. The class given is cell-based. The settings on record: Homo sapiens, HT-1080, 72 h, MTT, 72 hours incubation, read-out: GI50 HT1. In outline: as §1
The test system of assay [5] is Bel-7402 (human hepatoma cells). The experiment in a line: MTT cancer cell growth inhibition. The assay is classed as cell-based. Conditions: Homo sapiens, Bel-7402, 72 h, MTT, 72 hours incubation, Bel-7402 cells; read-out: GI50 Bel-7402. In a few lines:
as §1

Assay [6] deals with DU145 (human prostate cancer cells). Briefly: MTT cancer cell growth inhibition. The class given is cell-based. Conditions: Homo sapiens, DU-145, 72 h, MTT, 72 hours incubation, read-out: GI50 Du1. In outline:
as §1

For assay [7], the system named is lncap (prostate cancer cells). The experiment in a line: MTT cancer cell growth inhibition. The assay is classed as cell-based. The settings on record: Homo sapiens, LNCaP, 72 h, MTT, 72 hours incubation, read-out: GI50 lnca. In a few lines: as §1
For assay [8], the system named is MOLT-4 (human acute lymphoblastic leukemia cells). Briefly: MTT cancer cell growth inhibition. The assay is classed as cell-based. The settings on record: Homo sapiens, MOLT-4, 72 h, MTT, 72 hours incubation, read-out: GI50 Mol. In outline: as §1
Assay [9] deals with Huh-7 (human hepatoma cells). The experiment in a line: MTT cancer cell growth inhibition. The class given is cell-based. Conditions: Homo sapiens, Huh-7, 72 h, MTT, 72 hours incubation, Huh-7 cells; read-out: GI50 Huh-7. In outline: as §1
The test system of assay [10] is KBM-5 (human chronic myelogenous leukemia). Briefly: MTT cancer cell growth inhibition. Conditions: Homo sapiens, KBM5, 72 h, MTT, 72 hours incubation, KBM-5 cells; read-out: GI50 KBM-5. The assay is classed as cell-based. In outline: as §1
The test system of assay [11] is KBM5-T315I (human chronic myelogenous leukemia). The experiment in a line: MTT cancer cell growth inhibition. The class given is cell-based. The settings on record: Homo sapiens, 72 h, MTT, 72 hours incubation, KBM5-T315I cells; read-out: GI50 KBM5-T315I. In outline: as §1
In assay [12] the test system is MDA-MB-231 (breast cancer cells). The experiment in a line: MTT cancer cell growth inhibition. The class given is cell-based. Conditions: Homo sapiens, MDA-MB-231, 72 h, read-out: GI50 MDA-MB-231, MTT, 72 hours incubation, MDA-MB-231 cells. In a few lines:
as §1

Assay [13] relates to A549 (human lung cancer cells). Briefly: MTT cancer cell growth inhibition. The settings on record: Homo sapiens, A549, 72 h, MTT, 72 hours incubation, read-out: GI50 A54. The assay is classed as cell-based. In outline: as §1
The subject of assay [14] is U937 (human leukemia cells). The experiment in a line: MTT cancer cell growth inhibition. The settings on record: Homo sapiens, U-937, 72 h, MTT, 72 hours incubation, read-out: GI50 U93. The assay is classed as cell-based. In outline: as §1
The subject of assay [15] is K562 (human leukemia cells). The experiment in a line: MTT cancer cell growth inhibition. The assay is classed as cell-based. The settings on record: Homo sapiens, K562, 72 h, MTT, 72 hours incubation, K562 cells; read-out: GI50 K562. In outline: as §1
The subject of assay [16] is MCF-7 (human breast cancer cells). The experiment in a line: MTT cancer cell growth inhibition. The assay is classed as cell-based. The settings on record: Homo sapiens, MCF7, 72 h, 72 hours incubation, read-out: GI50 MCF. In a few lines: as §1
For assay [17], the system named is PANC-1 (Pac-1, human pancreatic cancer cells). Briefly: MTT cancer cell growth inhibition. Conditions: Homo sapiens, PANC-1, 72 h, MTT, 72 hours incubation, read-out: GI50 PAN. The class given is cell-based. In a few lines:
as §1

Assay [18] deals with Hela (human cervical cancer cells). Briefly: MTT cancer cell growth inhibition. The assay is classed as cell-based. Conditions: Homo sapiens, HeLa, 72 h, MTT, 72 hours incubation, read-out: GI50 Hela. In outline: as §1
Assay [19] deals with H1975 (non-small cell lung adenocarcinoma). The experiment in a line: MTT cancer cell growth inhibition. The class given is cell-based. Conditions: Homo sapiens, NCI-H1975, 72 h, MTT, 72 hours incubation, H1975 cells; read-out: GI50 H1975. In outline: as §1
In assay [20] the test system is SGC-7901 (human gastric cancer cells). Briefly: MTT cancer cell growth inhibition. The assay is classed as cell-based. The settings on record: Homo sapiens, SGC-7901, 72 h, MTT, 72 hours incubation, SGC-7901 cells; read-out: GI50 SGC-7901. In a few lines:
as §1

The subject of assay [21] is BGC-823 (human gastric cancer cells). The experiment in a line: MTT cancer cell growth inhibition. The assay is classed as cell-based. Conditions: Homo sapiens, BGC-823, 72 h, MTT, 72 hours incubation, read-out: GI50 BG. In outline:
as §1

The subject of assay [22] is HCC827 (human non-small cell lung cancer cells). The experiment in a line: MTT cancer cell growth inhibition. The class given is cell-based. Conditions: Homo sapiens, HCC827, 72 h, MTT, 72 hours incubation, HCC827 cells; read-out: GI50 HCC827. In outline:
as §1

Where [23] appears, read: read-out: IC50 HDAC3, HDAC3, 37° C. 30 minutes.

HDAC2, sequence (Q92769 whole entry, species assumed): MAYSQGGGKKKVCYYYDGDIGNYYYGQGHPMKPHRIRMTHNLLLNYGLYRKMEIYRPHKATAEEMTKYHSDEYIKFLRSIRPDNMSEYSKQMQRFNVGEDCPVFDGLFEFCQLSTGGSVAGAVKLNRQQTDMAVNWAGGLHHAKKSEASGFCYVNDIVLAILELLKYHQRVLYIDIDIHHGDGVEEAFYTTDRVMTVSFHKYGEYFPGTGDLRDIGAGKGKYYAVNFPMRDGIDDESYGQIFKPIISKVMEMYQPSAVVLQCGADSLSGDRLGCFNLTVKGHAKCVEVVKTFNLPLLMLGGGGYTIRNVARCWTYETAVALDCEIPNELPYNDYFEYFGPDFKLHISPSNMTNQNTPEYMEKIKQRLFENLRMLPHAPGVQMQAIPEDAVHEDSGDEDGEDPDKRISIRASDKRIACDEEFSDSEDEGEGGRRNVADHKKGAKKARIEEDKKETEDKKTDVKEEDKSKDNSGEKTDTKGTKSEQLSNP
HDAC3, sequence (O15379 whole entry, species assumed): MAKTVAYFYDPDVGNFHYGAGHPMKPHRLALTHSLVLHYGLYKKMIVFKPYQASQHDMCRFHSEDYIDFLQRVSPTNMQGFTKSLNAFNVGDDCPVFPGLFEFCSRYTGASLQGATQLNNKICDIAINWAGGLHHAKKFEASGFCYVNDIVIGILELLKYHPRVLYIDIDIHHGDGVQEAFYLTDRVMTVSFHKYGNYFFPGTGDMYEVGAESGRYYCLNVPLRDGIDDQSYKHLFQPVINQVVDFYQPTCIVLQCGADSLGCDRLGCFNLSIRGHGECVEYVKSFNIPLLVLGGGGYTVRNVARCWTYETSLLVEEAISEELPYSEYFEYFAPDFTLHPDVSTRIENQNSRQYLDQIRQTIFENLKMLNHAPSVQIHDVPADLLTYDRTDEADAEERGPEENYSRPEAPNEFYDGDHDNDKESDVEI
HDAC3, sequence (Q9Y618 395-489 partner limits assumed, species assumed): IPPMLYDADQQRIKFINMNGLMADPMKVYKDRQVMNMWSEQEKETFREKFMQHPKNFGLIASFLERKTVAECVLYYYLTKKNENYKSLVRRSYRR

Consider `C/C=C1\NC(=O)c2nc(ccc2F)CNC(=O)C[C@@H](/C=C/CCSC(C)=O)OC(=O)[C@H](Cc2ccc(O)cc2)NC1=O` [Compound 81], for which the pIC50 – broadly, −log10 of the IC50, conventionally taken in molar units – in [1] is 7.51; in assay [2] (setting [23]), 7.80. Further, the GI50 – broadly, the concentration that inhibits growth by half – came out at 35 nM in assay [3]; 50 nM in assay [4]; 51 nM in [5]; 20 nM in assay [6]; 30 nM in [7]; 30 nM in assay [8]. The GI50 is 34 nM in assay [9]; 38 nM in [10]; 34 nM in assay [11]; 34 nM in assay [12]; 50 nM in [13]; 40 nM in [14]. In addition, the GI50 was 29 nM in assay [15]; 30 nM in assay [16]; 50 nM in assay [17]; 30 nM in assay [18]; 43 nM in [19]; 59 nM in assay [20]. The GI50 was found to be 30 nM in assay [21] and 51 nM in assay [22].
On to `C/C=C1\NC(=O)c2ccc(SC)c(n2)CNC(=O)C[C@@H](/C=C/CCSC(=O)CCCCCCC)OC(=O)[C@H](CC)NC1=O` [Compound 173], for which the figures for the pIC50 in assay [1] and in assay [2] were 7.51 and 7.43, respectively. Moreover, the GI50 in [3] stood at 83 nM; in assay [4] (HT1080 cells), 70 nM; in assay [5], 22 nM; in [6] (DU145 cells), 60 nM; in [7] (lncap cells), 40 nM; in [8] (MOLT-4 cells), 30 nM. Further, the GI50 in assay [9] was determined as 71 nM; in [10], 13 nM; in [11], 12 nM; in assay [12], 48 nM; in [13] (A549 cells) it was 60 nM; in assay [14] (U937 cells), 10 nM. Besides, the GI50 was determined as 53 nM in assay [15]; 20 nM in assay [16] (MCF-7 cells); 40 nM in assay [17] (PANC-1 cells); 60 nM in assay [18] (Hela cells); 36 nM in [19]; 23 nM in assay [20]. Further, the GI50 is 40 nM in assay [21] (BGC-823 cells) and 27 nM in assay [22].
As to `C/C=C1\NC(=O)c2nc(ccc2F)CNC(=O)C[C@@H](/C=C/CCSC(C)=O)OC(=O)[C@H](Cc2cccc3ccccc23)NC1=O` [Compound 78], the negative logarithm of the IC50 (pIC50) in assay [1] was 7.43; in assay [2] (setting [23]) it was 7.42. The GI50 was determined as 61 nM in assay [3]; 70 nM in [4]; 72 nM in assay [5]; 40 nM in [6]; 20 nM in assay [7]; 20 nM in assay [8]. Also, the GI50 in assay [9] came to 29 nM; in assay [10], 61 nM; in assay [11], 19 nM; in [12], 29 nM; in assay [13], 60 nM; in assay [14], 60 nM. For the same compound, the GI50 worked out at 46 nM in assay [15]; 10 nM in assay [16]; 70 nM in assay [17]; 60 nM in assay [18]; 63 nM in [19]; 62 nM in assay [20]. In addition, the GI50 stood at 60 nM in assay [21] and 72 nM in [22].
Take `C/C=C1\NC(=O)c2ccc(F)c(n2)CNC(=O)C[C@@H](/C=C/CCSC(C)=O)OC(=O)[C@H](CCCCNC(=O)OCC2c3ccccc3-c3ccccc32)NC1=O` [Example 77]: the pIC50 is 7.54 in assay [1] and 7.59 in assay [2]. Also, the GI50 came to 52 nM in [3]; 80 nM in [4]; 83 nM in assay [5]; 40 nM in [6]; 20 nM in [7]; 20 nM in assay [8]. In addition, the GI50 turned out to be 25 nM in assay [9]; 52 nM in [10]; 37 nM in assay [11]; 25 nM in assay [12]; 600 nM in assay [13]; 30 nM in assay [14]. Besides, the GI50 stood at 42 nM in assay [15]; 30 nM in assay [16]; 80 nM in [17]; 50 nM in assay [18]; 35 nM in assay [19]; 601 nM in assay [20]. The GI50 in assay [21] turned out to be 50 nM; in assay [22], 83 nM.
